Assay results: US12594267B2, “Capsid inhibitors for the treatment of HIV” (Gilead Sciences, Inc., priority 2018, dated 2026)

Assay: PK after subcutaneous administration of solutions in dogs
Assay type: in vivo, Beagle dog
Method: Formulations containing the compound of Formula (Ia) were prepared as aqueous solutions or oral formulations and administered subcutaneously to rats, dogs, cynomolgus monkey, and/or rhesus monkey.
A solution of the compound of Formula (Ia) in 10% ethanol, 13% water, and 77% PEG 200 (400 mg/mL) was prepared. The solution was administered subcutaneously to dogs at a dose of 12 mg/kg and rats at a dose of 50 mg/kg and the pharmacokinetic (PK) profile was determined. […] In both species, plasma concentrations of the compound of Formula (Ia) were maintained above the target trough concentration of 20 nM (corresponding to an IQ of 5) for at least 84 days (12 weeks).
A solution of the compound of Formula (Ia) in 15% water and 85.0 PEG 300 (400 mg/mL) was prepared. The solution was administered subcutaneously to male beagle dogs at a dose level of 12 mg/kg and dose volume of […] and the pharmacokinetic (PK) profile was determined.
A solution of the compound of Formula (a) sodium salt in water and 300 (300 mg/mL) was prepared that contained 22.6% water/50% PEG 300/1.1% NaOH/26.3% Formula (Ia). The solution was administered subcutaneously to male beagle dogs at a dose level of 12 mg/kg and dose volume of […] and the pharmacokinetic (PK) profile was determined.
A 300 mg/ml solution of a compound of Formula (Ia) having 9.8 w/w % water, 65.0 w/w % PEG 300, and 25.2 w/w % of the compound of Formula (Ia) was prepared. The solution was administered subcutaneously to rats at a dose of 50 mg/kg and to dogs at a dose of 12 mg/kg and the pharmacokinetic (PK) profile was determined. […] In the rat, plasma concentrations of the compound of Formula (Ia) were maintained above the target trough concentration of 20 nM for at least 168 days (24 weeks). In the dog, plasma concentrations of the compound of Formula (Ia) were maintained above the target trough concentration of 20 nM for at least 84 days (12 weeks).
(§1) A 150 mg/ml solution of a compound of Formula (Ia) having 27.92 w/w % water, 58.04 w/w % PEG 300, 13.47 w/w % of a compound of Formula (Ia), and 1.1 w/w % NaOH was prepared. The solution was administered subcutaneously to rats at a dose of 50 mg/kg and to dogs at a dose of 12 mg/kg and the pharmacokinetic (PK) profile was determined. […] In the rat, plasma concentrations of the compound of Formula (Ia) were maintained above the target trough concentration of 20 nM for at least 126 days (18 weeks). In the dog, plasma concentrations of the compound of Formula (Ia) were maintained above the target trough concentration of 20 nM for at least 56 days (8 weeks).
as §1, with “300” for “150”, “23.2” for “27.92”, “50.0” for “58.04”, “25.7” for “13.47”
A 50 mg/ml solution of a compound of Formula (Ia) having 30.07 w/w % water, 64.40 w/w % PEG 300, 4.68 w/w % of a sodium salt of the compound of Formula (Ia), and 0.85 w/w % poloxamer 188 was prepared. The solution was administered subcutaneously to rats at a dose of 50 mg/kg and to dogs at a dose of 6 mg/kg and the pharmacokinetic (PK) profile was determined. […] In the rat, plasma concentrations of the compound of Formula (Ia) were maintained above the target trough concentration of 20 nM for at least 28 days (4 weeks). In the dog, plasma concentrations of the compound of Formula (Ia) were maintained above the target trough concentration of 20 nM for at least 14 days (2 weeks). […]

[1] = beagle, dog, plasma, sc, 12 mg/kg, SC 12 mg/kg, 400 mg/mL solution in 10% ethanol, 13% water, 77% PEG 200, mean ± SD, n=3
[2] = dog, SC 12 mg/kg, 150 mg/mL solution (w/w %: 27.92 water, 58.04 PEG 300, 13.47 Formula (Ia), 1.1 NaOH), mean ± SD, n=3

CC(C)(C#Cc1ccc(-c2ccc(Cl)c3c(NS(C)(=O)=O)nn(CC(F)(F)F)c23)c([C@H](Cc2cc(F)cc(F)c2)NC(=O)Cn2nc(C(F)(F)F)c3c2C(F)(F)[C@@H]2C[C@H]32)n1)S(C)(=O)=O [Formula (Ia), N—((S)-1-(3-(4-chloro-3-(methylsulfonamido)-1-(2,2,2-trifluoroethyl)-1H-indazol-7-yl)-6-(3-methyl-3-(methylsulfonyl)but-1-yn-1-yl)pyridin-2-yl)-2-(3,5-difluorophenyl)ethyl)-2-((3bS,4aR)-5,5-difluoro-3-(trifluoromethyl)-3b,4,4a,5-tetrahydro-1H-cyclopropa[3,4]cyclopenta[1,2-c]pyrazol-1-yl)acetamide]
AUC(0-t) (beagle, dog, plasma, sc, 12 mg/kg, dog, SC 12 mg/kg, 400 mg/mL solution in 10% ethanol, 13% water, 77% PEG 200, mean ± SD, n=3, read-out: AUC0-140d): 111 ± 14 µM·h
concentration at 84 d (beagle, dog, plasma, sc, 12 mg/kg, dog, SC 12 mg/kg, 400 mg/mL solution in 10% ethanol, 13% water, 77% PEG 200, mean ± SD, n=3, read-out: C84d): 23.4 ± 5.7 nM
Cmax [1]: 107 ± 13 nM
Tmax [1]: 14 days
Plasma concentration (dog #1, 0 h, SC 12 mg/kg, 400 mg/mL in 15% water/85% PEG 300): BLQ
Plasma concentration (dog #1, 1.0 h, SC 12 mg/kg, 400 mg/mL in 15% water/85% PEG 300): BLQ
Plasma concentration (dog #2, 0 h, SC 12 mg/kg, 400 mg/mL in 15% water/85% PEG 300): BLQ
Plasma concentration (dog #3, 0 h, SC 12 mg/kg, 400 mg/mL in 15% water/85% PEG 300): BLQ
Time plasma concentrations maintained above the target trough concentration of 20 nM (dog, SC 6 mg/kg, 50 mg/mL solution (w/w %: 30.07 water, 64.40 PEG 300, 4.68 sodium salt of Formula (Ia), 0.85 poloxamer 188)): at least 14 days
Time plasma concentrations maintained above the target trough concentration of 20 nM (dog, SC 6 mg/kg, 75 mg/mL solution (w/w %: 29.21 water, 62.55 PEG 300, 6.97 sodium salt of Formula (Ia), 1.68 poloxamer 188)): at least 21 days
Time plasma concentrations maintained above the target trough concentration of 20 nM (dog, SC 6 mg/kg, 100 mg/mL solution (w/w %: 28.36 water, 60.73 PEG 300, 9.23 sodium salt of Formula (Ia), 1.68 poloxamer 188)): at least 14 days
AUC0-14d (dog, SC 6 mg/kg, 100 mg/mL solution (w/w %: 28.36 water, 60.73 PEG 300, 9.23 sodium salt of Formula (Ia), 1.68 poloxamer 188), mean ± SD, n=3): 104 ± 26 µM·h
Time plasma concentrations maintained above the target trough concentration of 20 nM (dog, SC 6 mg/kg, 125 mg/mL solution (w/w %: 27.51 water, 58.92 PEG 300, 11.48 sodium salt of Formula (Ia), 2.09 poloxamer 188)): at least 14 days
Time plasma concentrations maintained above the target trough concentration of 20 nM (dog, SC 6 mg/kg, 150 mg/mL solution (w/w %: 26.6 water, 56.97 PEG 300, 13.39 Formula (Ia), 0.57 NaOH, 2.49 poloxamer 188)): at least 56 days
Time plasma concentrations maintained above the target trough concentration of 20 nM (dog, SC 6 mg/kg, 300 mg/mL solution (w/w %: 21.97 water, 47.05 PEG 300, 25.21 Formula (Ia), 1.08 NaOH, 4.69 poloxamer 188)): at least 56 days
AUC0-84d (dog, SC 6 mg/kg, 300 mg/mL solution (w/w %: 21.97 water, 47.05 PEG 300, 25.21 Formula (Ia), 1.08 NaOH, 4.69 poloxamer 188), mean ± SD, n=3): 65.4 ± 21.5 µM·h
Time plasma concentrations maintained above the target trough concentration of 20 nM (dog, SC 12 mg/kg, 150 mg/mL solution (w/w %: 27.92 water, 58.04 PEG 300, 13.47 Formula (Ia), 1.1 NaOH)): at least 56 days
AUC0-28d [2]: 137.0 ± 38 µM·h
AUC0-126d [2]: 196 ± 31 µM·h
Time plasma concentrations maintained above the target trough concentration of 20 nM (dog, SC 12 mg/kg, 300 mg/mL solution (w/w %: 9.8 water, 65.0 PEG 300, 25.2 Formula (Ia))): at least 84 days
Time plasma concentrations maintained above the target trough concentration of 20 nM (dog, SC 12 mg/kg, 300 mg/mL solution (w/w %: 23.2 water, 50.0 PEG 300, 25.7 Formula (Ia), 1.1 NaOH)): at least 56 days
Time plasma concentrations maintained above the target trough concentration of 20 nM (dog, SC 12 mg/kg, 400 mg/mL solution in 10% ethanol, 13% water, 77% PEG 200): at least 84 days
concentration at 3 h (male, beagle, dog, plasma, sc, 12 mg/kg, dog #1, 3.0 h, SC 12 mg/kg, 400 mg/mL in 15% water/85% PEG 300): 1.2 nM
concentration at 8 h (male, beagle, dog, plasma, sc, 12 mg/kg, dog #1, 8.0 h, SC 12 mg/kg, 400 mg/mL in 15% water/85% PEG 300): 10.6 nM
concentration at 24 h (male, beagle, dog, plasma, sc, 12 mg/kg, dog #1, 24.0 h, SC 12 mg/kg, 400 mg/mL in 15% water/85% PEG 300): 19.8 nM
concentration at 48 h (male, beagle, dog, plasma, sc, 12 mg/kg, dog #1, 48.0 h, SC 12 mg/kg, 400 mg/mL in 15% water/85% PEG 300): 54.6 nM
concentration at 72 h (male, beagle, dog, plasma, sc, 12 mg/kg, dog #1, 72.0 h, SC 12 mg/kg, 400 mg/mL in 15% water/85% PEG 300): 62.8 nM
concentration at 96 h (male, beagle, dog, plasma, sc, 12 mg/kg, dog #1, 96.0 h, SC 12 mg/kg, 400 mg/mL in 15% water/85% PEG 300): 58.9 nM
concentration at 168 h (male, beagle, dog, plasma, sc, 12 mg/kg, dog #1, 168 h, SC 12 mg/kg, 400 mg/mL in 15% water/85% PEG 300): 71.9 nM
